Measured values reported in patent publication US20050239656A1, “Pyridine compounds or salts thereof and herbicides containing the same” (priority 2002, published 2005).

Columns and labels:
barnyardgrass [1] = assay: Test Example 3: paddy pot test, application under submerged conditions; type: in vivo, Echinochloa crus-galli L.; conditions: submerged application at 0.5 leaf stage, visually observed 14 days after application, 0 = non-treated, 100 = complete kill
Method in brief: (§1)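 Paddy soil pots; seeds sown, lightly covered; flooded 0.5–1 cm in greenhouse; wapato tubers planted day 1–2; flood raised to 3–4 cm. Submerged pipette application at 0.5 leaf / primary leaf stage. Visual score day 14, 0–100%.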

corn = assay: Test Example 2: soil surface treatment, upland pot test; type: in vivo, Zea mays L.; conditions: active ingredient 500 g/ha
Method in brief: (§2)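 In this pre-emergence upland pot test, a small sprayer delivered the diluted compound formulation (1,500 L/ha water) to the soil surface the day after seeding. Plants were then observed, and control was scored from 0 to 100% some 20–28 days after treatment.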

green foxtail = assay: as above; type: in vivo, Setaria viridis L.; conditions: active ingredient 500 g/ha
Method in brief: as §2

rice = assay: as above; type: in vivo, Oryza sativa L.; conditions: active ingredient 500 g/ha
Method in brief: as §2

soybean = assay: as above; type: in vivo, Glycine max Merr.; conditions: active ingredient 500 g/ha
Method in brief: as §2

prickly sida = assay: as above; type: in vivo, Sida spinosa L.; conditions: active ingredient 500 g/ha
Method in brief: as §2

japanese bulrush = assay: Test Example 3: paddy pot test, application under submerged conditions; type: in vivo, Scirpus juncoides; conditions: submerged application at 0.5 leaf stage, visually observed 14 days after application, 0 = non-treated, 100 = complete kill
Method in brief: as §1

velvetleaf = assay: Test Example 2: soil surface treatment, upland pot test; type: in vivo, Abutilon theophrasti MEDIC.; conditions: active ingredient 500 g/ha
Method in brief: as §2

redroot pigweed = assay: as above; type: in vivo, Amaranthus retroflexus L.; conditions: active ingredient 500 g/ha
Method in brief: as §2

japanese ribbon wapato = assay: Test Example 3: paddy pot test, application under submerged conditions; type: in vivo, Sagittaria pygniaea; conditions: submerged application at primary leaf stage, visually observed 14 days after application, 0 = non-treated, 100 = complete kill
Method in brief: as §1

barnyardgrass [2] = assay: Test Example 2: soil surface treatment, upland pot test; type: in vivo, Echinochloa crus-galli L.; conditions: active ingredient 500 g/ha
Method in brief: as §2

rice (var. Nihonbare) = assay: Test Example 3: paddy pot test, transplanted rice; type: in vivo, Oryza sativa L.; conditions: applied 4th day after transplantation, visually observed 21st day after application, 0 = non-treated, 100 = complete kill
Method in brief: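 Visual crop-injury rating (0 = as untreated, 100 = complete kill, %) taken 21 days post-application. Treatment: formulated compound, water-diluted, pipetted into 3–4 cm flood water at a preset active-ingredient dose, 4 days after transplanting 2-leaf Nihonbare rice 3 cm deep in puddled paddy soil.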

crabgrass = assay: Test Example 2: soil surface treatment, upland pot test; type: in vivo, Digitaria sanguinalis L.; conditions: active ingredient 500 g/ha
Method in brief: as §2

[3] = observed day 21, 0 = non-treated, 100 = complete kill

SMILES	Growth controlling degree (%) Barnyardgrass (barnyardgrass [1]; active ingredient 250 g/ha) [%]	Growth controlling degree (%) Japanese bulrush (japanese bulrush; active ingredient 250 g/ha) [%]	Growth controlling degree (%) Japanese ribbon wapato (japanese ribbon wapato; active ingredient 250 g/ha) [%]	Growth controlling degree (%) Rice (rice (var. Nihonbare); active ingredient 250 g/ha) [%]	Growth controlling degree (%) Corn (corn; observed 20th to 28th day) [%]	Growth controlling degree (%) Green foxtail (green foxtail; observed 20th to 28th day) [%]	Growth controlling degree (%) Rice (rice; observed 20th to 28th day) [%]	Growth controlling degree (%) Soyabean (soybean; observed 20th to 28th day) [%]	Growth controlling degree (%) Prickly sida (prickly sida; observed 20th to 28th day) [%]	Growth controlling degree (%) Velvetleaf (velvetleaf; observed 20th to 28th day) [%]	Growth controlling degree (%) Redroot pigweed (redroot pigweed; observed 20th to 28th day) [%]	Growth controlling degree (%) Barnyardgrass (barnyardgrass [2]; observed 20th to 28th day) [%]	Growth controlling degree (%) Crabgrass (crabgrass; observed 20th to 28th day) [%]	other results
CCN(C(=O)COc1ccccc1)C(c1cnccc1C(F)(F)F)C(C)C (stereo not drawn) [I-259]	98	70	90	40										Growth controlling degree (%) Corn (corn; [3]): 30%; Growth controlling degree (%) Green foxtail (green foxtail; [3]): 98%; Growth controlling degree (%) Rice (rice; [3]): 10%; Growth controlling degree (%) Soyabean (soybean; [3]): 0%; Growth controlling degree (%) Prickly sida (prickly sida; [3]): 40%; Growth controlling degree (%) Velvetleaf (velvetleaf; [3]): 10%; Growth controlling degree (%) Redroot pigweed (redroot pigweed; [3]): 50%; Growth controlling degree (%) Barnyardgrass (barnyardgrass [2]; [3]): 70%; Growth controlling degree (%) Crabgrass (crabgrass; [3]): 75%
Cc1ccc(CC(=O)N(C)C(c2cnccc2C(F)(F)F)C(C)C)cc1 (stereo not drawn) [I-94]	100	98	90	0	10	100	10	0	100	80	98	100	100	
CC(C)C(c1cnccc1C(F)(F)F)N(C)C(=O)Cc1ccsc1 (stereo not drawn) [I-170]	100	100	70	0	50	100	30	35	95	30	30	100	98	
CC=CC(=O)N(C)C(c1cnccc1C(F)(F)F)C(C)C (stereo not drawn) [I-180]					10	100	50	10	80	50	80	100	100	Growth controlling degree (%) Barnyardgrass (barnyardgrass [1]; active ingredient 500 g/ha): 98%; Growth controlling degree (%) Japanese bulrush (japanese bulrush; active ingredient 500 g/ha): 100%; Growth controlling degree (%) Japanese ribbon wapato (japanese ribbon wapato; active ingredient 500 g/ha): 60%; Growth controlling degree (%) Rice (rice (var. Nihonbare); active ingredient 500 g/ha): 30%
CC(C)C(c1cnccc1Cl)N(C)C(=O)COc1ccccc1 (stereo not drawn) [Compound I-84]	98	98	20	0	20	30	20	0	0	0	50	80	70	
Cc1cccc(CC(=O)N(C)C(c2cnccc2C(F)(F)F)C(C)C)c1 (stereo not drawn) [I-87]	100	90	70	0	40	95	0	0	100	70	85	100	98	
CC(C)C(c1cnccc1Cl)N(C)C(=O)Cc1ccccc1Cl (stereo not drawn) [Compound I-81]	98	95	0	10	0	70	0	0	10	0	70	98	90	
Cc1ccc(CC(=O)N(C)C(c2cnccc2C(F)(F)F)C(C)C)c(F)c1 (racemic) [I-109]					10	70	20	0	0	0	70	0	98	Growth controlling degree (%) Barnyardgrass (barnyardgrass [1]; active ingredient 125 g/ha): 95%; Growth controlling degree (%) Japanese bulrush (japanese bulrush; active ingredient 125 g/ha): 90%; Growth controlling degree (%) Japanese ribbon wapato (japanese ribbon wapato; active ingredient 125 g/ha): 60%; Growth controlling degree (%) Rice (rice (var. Nihonbare); active ingredient 125 g/ha): 0%
CC(C)C(c1cnccc1C(F)(F)F)N(C)C(=O)CSc1ccccc1 (stereo not drawn) [I-256]	100	90	20	0										Growth controlling degree (%) Corn (corn; [3]): 10%; Growth controlling degree (%) Green foxtail (green foxtail; [3]): 100%; Growth controlling degree (%) Rice (rice; [3]): 0%; Growth controlling degree (%) Soyabean (soybean; [3]): 0%; Growth controlling degree (%) Prickly sida (prickly sida; [3]): 10%; Growth controlling degree (%) Velvetleaf (velvetleaf; [3]): 0%; Growth controlling degree (%) Redroot pigweed (redroot pigweed; [3]): 80%; Growth controlling degree (%) Barnyardgrass (barnyardgrass [2]; [3]): 70%; Growth controlling degree (%) Crabgrass (crabgrass; [3]): 98%
